Measurements as given in article PMC4418667 (PLoS ONE, 2015).

Target: T1, IKKβ (Homo sapiens, UniProt O14920)
T1 construct: gene IKBKB
T1 sequence (O14920 1-756): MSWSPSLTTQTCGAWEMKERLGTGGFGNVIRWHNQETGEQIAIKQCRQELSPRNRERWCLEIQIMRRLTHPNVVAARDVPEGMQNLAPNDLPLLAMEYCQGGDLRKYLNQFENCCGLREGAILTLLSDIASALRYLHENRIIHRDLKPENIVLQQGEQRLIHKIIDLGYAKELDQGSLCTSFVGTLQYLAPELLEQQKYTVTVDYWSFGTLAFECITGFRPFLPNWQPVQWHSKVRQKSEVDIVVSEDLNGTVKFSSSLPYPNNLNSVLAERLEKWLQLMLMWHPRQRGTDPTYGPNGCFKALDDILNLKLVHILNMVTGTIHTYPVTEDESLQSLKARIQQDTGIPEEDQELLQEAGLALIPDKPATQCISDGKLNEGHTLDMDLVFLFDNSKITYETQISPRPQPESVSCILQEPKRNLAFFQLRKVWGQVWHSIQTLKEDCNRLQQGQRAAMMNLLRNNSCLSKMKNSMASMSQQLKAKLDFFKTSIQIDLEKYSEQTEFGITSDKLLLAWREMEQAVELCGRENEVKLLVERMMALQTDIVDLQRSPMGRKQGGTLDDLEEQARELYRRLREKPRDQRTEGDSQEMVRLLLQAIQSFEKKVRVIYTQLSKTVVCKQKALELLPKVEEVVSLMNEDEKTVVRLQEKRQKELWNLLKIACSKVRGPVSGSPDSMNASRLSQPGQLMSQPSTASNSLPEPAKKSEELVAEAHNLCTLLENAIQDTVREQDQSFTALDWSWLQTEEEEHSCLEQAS
Assay: biochemical

| SMILES | IC50 |
| --- | --- |
| C[C@H]1[C@H](C)CC[C@]2(C(=O)O)CC[C@]3(C)C(=CC[C@@H]4[C@@]5(C)CC[C@H](O)C(C)(C)[C@@H]5CC[C@]43C)[C@H]12 [UA, Ursolic Acid] | 69 µM |
| C[C@H]1[C@H](C)CC[C@]2(C(=O)O)CC[C@]3(C)C(=CC[C@@H]4[C@@]5(C)C[C@@H](O)[C@H](O)[C@@](C)(CO)[C@@H]5CC[C@]43C)[C@H]12 [AA, Asiatic Acid] | 95 µM |
| C[C@H]1[C@H](C)CC[C@]2(C(=O)O)CC[C@]3(C)C(=CC[C@@H]4[C@@]5(C)C[C@@H](O)[C@H](O)C(C)(C)[C@@H]5CC[C@]43C)[C@H]12 [CA, Corosolic Acid] | 89.3 µM |
